Test results published in patent EP4553077A1 (Kinoteck Therapeutics Co., Ltd, priority 2022, dated 2024).

How the values were obtained:
Ba/F3-TEL-FGFR3 = Ba/F3-TEL-FGFR3 (Homo sapiens, UniProt P22607+P41212); assay: Cell viability (proliferation inhibition) of Ba/F3 cells, CellTiter Glo; settings: read-out: Ba/F3 cell FGFR3 (IC50 nM), 72 h
A204 cells = assay: Proliferation inhibition, CCK-8 colorimetric method; type: cell-based; settings: 72 h
Method: (§1) CCK-8 (Bimake/B34304) colorimetric method was used to detect the in vitro proliferation inhibitory effect of compounds on suspended or adherent cells in this experiment. The specific experimental steps were as follows: • 1) Cell plating: SNU16 and A204 tumor cells (cells from Shanghai Institute of Organic Chemistry, Chinese Academy of Sciences) in the logarithmic growth phase were digested and centrifuged for trypan blue counting, and the cells were seeded into a transparent 96 well plate at a density of 4000 cells/100 µ 1/well. […] The test compound and control compound stock solution were diluted with the corresponding culture medium required for cell culture (with or without solvent DMSO) to obtain a series of working solutions, with concentrations of twice the final concentration. The solvent DMSO contents in each concentration group were consistent with that of the solvent control group. The final concentration of A204 cells started at 10 µM and was diluted twice.
(§2) Calculation of cell survival rate: Cell survival rate (%)=[(As-Ac)/(Ab-Ac)] × 100%] (As: experimental well; Ab: Solvent control well; Ac: Blank well).

SNU16 cells = assay: as above; type: cell-based
Method: as §1, §2

Ba/F3-TEL-FGFR1 = Ba/F3-TEL-FGFR1 (Homo sapiens, UniProt P11362+P41212); assay: Cell viability (proliferation inhibition) of Ba/F3 cells, CellTiter Glo; settings: read-out: Ba/F3 cell FGFR1 (IC50 nM), 72 h
Chain of Ba/F3-TEL-FGFR1 (P11362 478-767 limits assumed, one chain of several): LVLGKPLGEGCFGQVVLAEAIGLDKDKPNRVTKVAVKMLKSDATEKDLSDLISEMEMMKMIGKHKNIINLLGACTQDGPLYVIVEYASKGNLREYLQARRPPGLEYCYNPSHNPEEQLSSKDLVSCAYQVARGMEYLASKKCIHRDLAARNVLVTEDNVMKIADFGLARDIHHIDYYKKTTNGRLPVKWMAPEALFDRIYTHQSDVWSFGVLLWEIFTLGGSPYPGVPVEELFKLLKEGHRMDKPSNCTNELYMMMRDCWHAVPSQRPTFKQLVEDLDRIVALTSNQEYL

Ba/F3-TEL-FGFR2 = Ba/F3-TEL-FGFR2 (Homo sapiens, UniProt P21802+P41212); assay: as above; settings: read-out: Ba/F3 cell FGFR2 (IC50 nM), 72 h
Chain of Ba/F3-TEL-FGFR2 (P21802 481-770 limits assumed, one chain of several): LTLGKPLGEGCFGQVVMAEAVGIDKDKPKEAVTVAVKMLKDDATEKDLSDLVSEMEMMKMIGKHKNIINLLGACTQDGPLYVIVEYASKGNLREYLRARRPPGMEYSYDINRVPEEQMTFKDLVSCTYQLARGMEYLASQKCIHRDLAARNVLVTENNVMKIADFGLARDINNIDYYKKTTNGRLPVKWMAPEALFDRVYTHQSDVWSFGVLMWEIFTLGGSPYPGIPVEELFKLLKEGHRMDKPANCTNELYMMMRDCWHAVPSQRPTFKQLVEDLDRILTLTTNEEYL

[1] = Pharmacokinetic test in rats; type: in vivo, male SD rats; settings: rat, plasma, oral gavage administration, 10 mg/kg
Method: Rat pharmacokinetic experiments were performed using male SD rats, 180-220g, provided by Beijing Vital River Laboratory Animal Technology Co., Ltd. 3 rats that were fasted overnight were taken, and administered orally by gavage (10 mg/kg). Blood samples were collected before administration, as well as 5, 15, 30 min and 1, 2, 4, 6, 8, 24 h after administration; another 3 rats were taken and administered intravenously (1 mg/kg), blood samples were collected before administration, as well as 5, 15, 30 min and 1, 2, 4, 6, 8, 24 h after administration. Blood sample was centrifuged at 6800g, 2-8 °C for 6 min, and plasma was collected, and stored at -80 °C. Plasma of each time point was taken, 10 times the amount of 50% methanol acetonitrile solution containing internal standard was added, and mixed by vortex for 5 min, centrifuged at 18000 rpm at 4 °C for 10 min, and the supernatant was taken directly for LC-MS/MS analysis. The main pharmacokinetic parameters were analyzed using WinNonlin8.2 software for non compartmental model analysis. Table 3: pharmacokinetic test in rats results of test compounds

Chain of Ba/F3-TEL-FGFR3 (P22607 472-761 limits assumed, one chain of several): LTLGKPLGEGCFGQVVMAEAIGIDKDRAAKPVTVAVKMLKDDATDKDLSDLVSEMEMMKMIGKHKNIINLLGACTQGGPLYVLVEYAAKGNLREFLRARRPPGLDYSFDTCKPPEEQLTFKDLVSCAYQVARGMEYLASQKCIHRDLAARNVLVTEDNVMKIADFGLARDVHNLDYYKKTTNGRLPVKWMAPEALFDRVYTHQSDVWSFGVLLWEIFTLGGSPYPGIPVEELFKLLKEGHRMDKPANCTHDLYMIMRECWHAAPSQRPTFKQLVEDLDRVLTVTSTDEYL

## N-(4-(4-amino-7-methyl-5-(4-(1-oxotetrahydro-2H-1λ^6-thiopyran-1- imino) phenyl) -7H-pyrrolo [2,3-d] pyrimidin-6-yl) -3-fluorophenyl) methacrylamide [Compound 1]
Ba/F3-TEL-FGFR3
  IC50: 869 nM
A204 cells
  IC50: 1310 nM
SNU16 cells; 72 h
  IC50: 5.57 nM
Ba/F3-TEL-FGFR1
  IC50: 656 nM
Ba/F3-TEL-FGFR2
  IC50: 2.3 nM

## [2H]C([2H])([2H])n1c(-c2ccc(NC(=O)C(=C)C)cc2F)c(-c2ccc(N=S3(=O)CCCC3)c(F)c2)c2c(N)ncnc21 [Compound 94]
Ba/F3-TEL-FGFR3
  IC50: 205 nM
Ba/F3-TEL-FGFR1
  IC50: 625 nM
Ba/F3-TEL-FGFR2
  IC50: 1.1 nM

## C=C(C)C(=O)Nc1ccc(-c2c(-c3ccc(N=S4(=O)CCCC4)c(F)c3)c3c(N)ncnc3n2C)c(C)c1 [Compound 22, N-(4-(4-amino-5-(3-fluoro-4-((1-oxotetrahydro-1 λ^6-thiophene-1-ylidene)amino)phenyl) -7-methyl-7H-pyrrolo [2,3-d]pyrimidin-6-yl) -3-methylphenyl) methacrylamide]
A204 cells; Homo sapiens
  IC50: 1610 nM
SNU16 cells; Homo sapiens, SNU-16, 72 h
  IC50: 4.97 nM
Ba/F3-TEL-FGFR1
  IC50: 717 nM
Ba/F3-TEL-FGFR2
  IC50: 2.7 nM

## [2H]C([2H])([2H])n1c(-c2ccc(NC(=O)C(=C)C)cc2F)c(-c2ccc(N=S(=O)(CC)CC)cc2)c2c(N)ncnc21 [Compound 109]
A204 cells; Homo sapiens
  IC50: 1040 nM
SNU16 cells; Homo sapiens, SNU-16, 72 h
  IC50: 9.38 nM
Ba/F3-TEL-FGFR2
  IC50: 4.5 nM

## C=C(C)C(=O)Nc1ccc(-c2c(-c3ccc(N=S4(=O)CCCC4)c(F)c3)c3c(N)ncnc3n2C)c(C#N)c1 [Compound 26, N-(4-(4-amino-5-(3-fluoro-4-((1-oxotetrahydro-1 λ^6-thiophene-1-ylidene)amino)phenyl) -7-methyl-7H-pyrrolo [2,3-d]pyrimidin-6-yl) -3-cyanophenyl) methacrylamide]
Ba/F3-TEL-FGFR3
  IC50: 110 nM
A204 cells; Homo sapiens
  IC50: 285 nM
SNU16 cells; Homo sapiens, SNU-16, 72 h
  IC50: 3.36 nM
Ba/F3-TEL-FGFR2
  IC50: 4.5 nM

## C=C(C)C(=O)Nc1ccc(-c2c(-c3ccc(Oc4nccc(C)n4)c(F)c3)c3c(N)ncnc3n2C)cc1 [Control compound I, reference compound]
A204 cells; Homo sapiens
  IC50: 3220 nM
SNU16 cells; Homo sapiens, SNU-16, 72 h
  IC50: 13.2 nM
[1]; male, SD
  AUC(0-t): 606 ng·h/mL
  Cmax: 141 ng/mL
  Tmax: 40.2 min
  half-life: 51 min

## C=C(C)C(=O)Nc1ccc(-c2c(-c3ccc(N=S4(=O)CCCCC4)c(F)c3)c3c(N)ncnc3n2C)c(F)c1 [Compound 7]
Ba/F3-TEL-FGFR3
  IC50: 545 nM
Ba/F3-TEL-FGFR1
  IC50: 627 nM
Ba/F3-TEL-FGFR2
  IC50: 2.4 nM

## C=C(C)C(=O)Nc1ccc(-c2c(-c3ccc(N=S(=O)(CC)CC)c(F)c3)c3c(N)ncnc3n2C)c(F)c1 [Compound 100]
Ba/F3-TEL-FGFR3
  IC50: 414 nM
Ba/F3-TEL-FGFR1
  IC50: 823 nM
Ba/F3-TEL-FGFR2
  IC50: 1.9 nM

## C=C(C)C(=O)Nc1ccc(-c2c(-c3ccc(N=S(=O)(N(C)C)C(F)(F)F)c(F)c3)c3c(N)ncnc3n2C)cc1 (stereo not shown) [Compound 48]
Ba/F3-TEL-FGFR3
  IC50: 577 nM
Ba/F3-TEL-FGFR1
  IC50: 625 nM
Ba/F3-TEL-FGFR2
  IC50: 0.9 nM
[1]
  AUC(0-t): 883 ng·h/mL
  Cmax: 212 ng/mL
  Tmax: 49.8 min
  half-life: 206 min

## C=C(C)C(=O)Nc1ccc(-c2c(-c3ccc(N=S4(=O)CCC4)c(F)c3)c3c(N)ncnc3n2C)c(Cl)c1 [Compound 74, N-(4-(4-amino-5-(3-fluoro-4-(1-oxo-1λ^6-thietan-1-imino)phenyl) -7-methyl-7H-pyrrolo[2,3-d]pyrimidin-6-yl)-3-chlorophenyl)methacrylamide]
A204 cells; Homo sapiens
  IC50: 595 nM
SNU16 cells; Homo sapiens, SNU-16, 72 h
  IC50: 1.19 nM
Ba/F3-TEL-FGFR1
  IC50: 300 nM
Ba/F3-TEL-FGFR2
  IC50: 0.5 nM

## C=C(C)C(=O)Nc1ccc(-c2c(-c3ccc(N=S(=O)(CC)CC)cc3)c3c(N)ncnc3n2C)c(Cl)c1 [Compound 102]
A204 cells; Homo sapiens
  IC50: 502 nM
SNU16 cells; Homo sapiens, SNU-16, 72 h
  IC50: 2.63 nM
Ba/F3-TEL-FGFR2
  IC50: 0.6 nM

## [2H]C([2H])([2H])n1c(-c2ccc(NC(=O)C(=C)C)cc2F)c(-c2ccc(N=S3(=O)CCC3)c(F)c2)c2c(N)ncnc21 [Compound 97, N-(4-(4-amino-5-(3-fluoro-4-((1-oxo-1 λ^6-thiophene-1-ylidene)amino)phenyl) -7-(methyl-d3) -7H-pyrrole [2,3-d]pyrimidin-6-yl) -3-fluorophenyl) methacrylamide]
A204 cells; Homo sapiens
  IC50: 764 nM
SNU16 cells; Homo sapiens, SNU-16, 72 h
  IC50: 2.66 nM
Ba/F3-TEL-FGFR1
  IC50: 480 nM
Ba/F3-TEL-FGFR2
  IC50: 1.9 nM

## C=C(F)C(=O)Nc1ccc(-c2c(-c3ccc(N=S4(=O)CCCC4)c(F)c3)c3c(N)ncnc3n2C)cc1 [Compound 21, N-(4-(4-amino-5-(3-fluoro-4-((1-oxotetrahydro-1 λ^6-thiophene-1-ylidene)amino)phenyl) -7-methyl-7H-pyrrolo [2,3-d]pyrimidin-6-yl)phenyl) -2-fluoroacrylamide]
A204 cells; Homo sapiens
  IC50: 333 nM
SNU16 cells; Homo sapiens, SNU-16, 72 h
  IC50: 1.72 nM
Ba/F3-TEL-FGFR2
  IC50: 0.8 nM

## [2H]C([2H])([2H])n1c(-c2cc(C)c(NC(=O)C(=C)C)cc2Cl)c(-c2ccc(N=S3(=O)CCCC3)c(F)c2)c2c(N)ncnc21 [Compound 90, N-(4-(4-amino-5-(3-fluoro-4-((1-tetrahydro-1λ^6-thiophene-1-ylidene)amino)phenyl) -7-(methyl-d3) -7H-pyrrolo [2,3-d]pyrimidin-6-yl) -5-chloro-2-methylphenyl) methacrylamide]
Ba/F3-TEL-FGFR3
  IC50: 174 nM
Ba/F3-TEL-FGFR2
  IC50: 3.6 nM

## C=C(C)C(=O)Nc1ccc(-c2c(-c3ccc(N=S4(=O)CCC4)cc3)c3c(N)ncnc3n2C)c(F)c1 [Compound 8]
A204 cells; Homo sapiens
  IC50: 618 nM
SNU16 cells; Homo sapiens, SNU-16, 72 h
  IC50: 1.34 nM
Ba/F3-TEL-FGFR1
  IC50: 600 nM
Ba/F3-TEL-FGFR2
  IC50: 0.7 nM
[1]
  AUC(0-t): 630 ng·h/mL
  Cmax: 352 ng/mL
  Tmax: 15 min
  half-life: 109 min

## C=C(C)C(=O)Nc1ccc(-c2c(-c3ccc(N=S4(=O)CCCC4)c(Cl)c3)c3c(N)ncnc3n2C)c(F)c1 [Compound 88, N-(4-(4-amino-5-(3-chloro-4-((1-oxidetetrahydro-1 λ^6-thiophene-1-ylidene)amino)phenyl) -7-methyl-7H-pyrrolo [2,3-d]pyrimidin-6-yl) -3-fluorophenyl) methacrylamide]
Ba/F3-TEL-FGFR3
  IC50: 216 nM
Ba/F3-TEL-FGFR1
  IC50: 561 nM
Ba/F3-TEL-FGFR2
  IC50: 1.5 nM

## [2H]C([2H])([2H])n1c(-c2ccc(NC(=O)C(=C)C)cc2F)c(-c2ccc(N=S3(=O)C=CC=C3)cc2)c2c(N)ncnc21 [Compound 98, N-(4-(4-amino-7-(methyl-d3) -5-(4-((1-oxo-1 λ^6-thiophene-1-ylidene)amino)phenyl) -7H-pyrrolo [2,3-d]pyrimidin-6-yl) -3-fluorophenyl) methacrylamide]
A204 cells; Homo sapiens
  IC50: 845 nM
SNU16 cells; Homo sapiens, SNU-16, 72 h
  IC50: 1.81 nM
Ba/F3-TEL-FGFR1
  IC50: 416 nM
Ba/F3-TEL-FGFR2
  IC50: 0.6 nM

## C=C(C)C(=O)Nc1ccc(-c2c(-c3ccc(N=S4(=O)CCC4)c(Cl)c3)c3c(N)ncnc3n2C)c(F)c1 [Compound 104]
A204 cells; Homo sapiens
  IC50: 1020 nM
SNU16 cells; Homo sapiens, SNU-16, 72 h
  IC50: 5.51 nM
Ba/F3-TEL-FGFR1
  IC50: 640 nM
Ba/F3-TEL-FGFR2
  IC50: 0.9 nM
